From ChEMBL document CHEMBL6109089, “Design, synthesis and optimization of Apcin analogues as Cdc20 inhibitors for triple-negative breast cancer therapy” (Eur J Med Chem, 2025)
Each block holds one compound with its values, some of them ahead of it.

What was measured:
MDA-MB-231 [1] = assay: cells; details: Homo sapiens, MDA-MB-231, 48 h
Description: Antiproliferative activity against human MDA-MB-231 cells assessed as inhibition of cell growth measured after 48 hrs by CCK-8 method

HeLa = assay: cells; details: Homo sapiens, 48 h
Description: Antiproliferative activity against human HeLa cells assessed as inhibition of cell growth measured after 48 hrs by CCK-8 method

SiHa = assay: cells; details: Homo sapiens, 48 h
Description: Antiproliferative activity against human SiHa cells assessed as inhibition of cell growth measured after 48 hrs by CCK-8 method

[2] = Antiproliferative activity against human MCF-10A cells assessed as inhibition of cell growth measured after 48 hrs by CCK-8 method; format: toxicity, cell-based
MDA-MB-436 = assay: cells; details: Homo sapiens, MDA-MB-436, 48 h
Description: Antiproliferative activity against human MDA-MB-436 cells assessed as inhibition of cell growth measured after 48 hrs by CCK-8 method

[3] = Antiproliferative activity against human HK-2 cells assessed as inhibition of cell growth measured after 48 hrs by CCK-8 method; format: toxicity, cell-based
[4] = Antiproliferative activity against rat H9c2 cells assessed as inhibition of cell growth measured after 48 hrs by CCK-8 method; format: toxicity, cell-based
MCF7 = assay: cells; details: Homo sapiens, MCF7, 48 h
Description: Antiproliferative activity against human MCF7 cells assessed as inhibition of cell growth measured after 48 hrs by CCK-8 method

[5] = Selectivity index, ratio of IC50 for antiproliferative activity against human MCF-10A cells to IC50 for antiproliferative activity against human MDA-MB-231 cells; format: toxicity, cell-based; details: MCF-10A cells and MDA-MB-231 cells, read-out: Ratio IC50
[6] = Selectivity index, ratio of IC50 for antiproliferative activity against human MCF7 cells to IC50 for antiproliferative activity against human MDA-MB-231 cells; format: cell-based
MDA-MB-231 [7] = assay: Induction of apoptosis in human MDA-MB-231 cells assessed as early apoptotic cells at 300 uM incubated for 24 hrs by Annexin V-FITC/PI staining based flow cytometry analysis (reference value: 5.40%); format: functional
MDA-MB-231 [8] = assay: Induction of apoptosis in human MDA-MB-231 cells assessed as late apoptotic cells at 300 uM incubated for 24 hrs by Annexin V-FITC/PI staining based flow cytometry analysis (reference value: 0.46%); format: functional
MDA-MB-231 [9] = assay: Induction of cell cycle arrest in human MDA-MB-231 cells assessed as increase in accumulation of cells at G2/M phase at 300 uM measured after 24 hrs by PI staining based flow cytometry analysis (reference value: 26.38%); format: functional
MDA-MB-231 [10] = assay: Induction of apoptosis in human MDA-MB-231 cells assessed as necrotic cells at 300 uM incubated for 24 hrs by Annexin V-FITC/PI staining based flow cytometry analysis (reference value: 0.033%); format: functional
MDA-MB-231 [11] = assay: Induction of apoptosis in human MDA-MB-231 cells assessed as viable cells at 300 uM incubated for 24 hrs by Annexin V-FITC/PI staining based flow cytometry analysis (reference value: 94.1%); format: functional; details: read-out: Activity
[12] = target: Cell division cycle protein 20 homolog (Homo sapiens, UniProt Q12834); assay: Binding affinity to Cdc20 (unknown origin) assessed as dissociation constant measured after 360 secs by surface plasmon resonance assay
MDA-MB-231 [13] = assay: Antitumor activity against human MDA-MB-231 cells xenografted in BALB/c nude mouse model assessed as reduction in tumor growth at 30 mg/kg, ip administered daily for 18 days by vernier caliper method relative to control; format: functional; parameters: scale not given: the % may be the effect or the level left; details: time 18 day

Cell division cycle protein 20 homolog, sequence (Q12834 whole entry): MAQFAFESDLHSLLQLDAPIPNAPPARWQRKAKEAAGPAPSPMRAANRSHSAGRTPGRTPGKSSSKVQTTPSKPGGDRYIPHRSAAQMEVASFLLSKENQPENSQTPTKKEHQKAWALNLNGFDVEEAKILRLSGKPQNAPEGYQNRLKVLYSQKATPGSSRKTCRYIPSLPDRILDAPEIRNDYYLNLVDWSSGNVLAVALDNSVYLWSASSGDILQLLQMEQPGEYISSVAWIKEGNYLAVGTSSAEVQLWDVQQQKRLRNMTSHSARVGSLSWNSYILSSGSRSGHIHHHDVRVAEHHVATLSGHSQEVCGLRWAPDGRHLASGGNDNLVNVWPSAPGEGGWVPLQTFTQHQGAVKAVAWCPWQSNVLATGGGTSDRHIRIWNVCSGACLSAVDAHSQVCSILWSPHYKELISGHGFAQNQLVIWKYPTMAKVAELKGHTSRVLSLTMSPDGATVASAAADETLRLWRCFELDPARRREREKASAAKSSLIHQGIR

Structure (SMILES): Cc1ncc([N+](=O)[O-])n1CCOC(=O)NC(Nc1nc(Cl)cc(Nc2ccc(C#N)cc2)n1)C(Cl)(Cl)Cl (centres undefined)
IC50 (MDA-MB-231 [1]): 11 µM

Structure (SMILES): CNc1cc(Cl)nc(NC(NC(=O)OCCn2c([N+](=O)[O-])cnc2C)C(Cl)(Cl)Cl)n1 (centres undefined)
IC50 (HeLa): 72.3 µM
IC50 (MDA-MB-231 [1]): 56.7 µM
IC50 (SiHa): 56.6 µM

Structure (SMILES): O=C(NC(Nc1nc(Cl)cc(Nc2ccc(C(F)(F)F)cc2)n1)C(Cl)(Cl)Cl)OCCCc1cccnc1 (centres undefined)
IC50 (MDA-MB-231 [1]): 13.8 µM

Structure (SMILES): Cc1ncc([N+](=O)[O-])n1CCOC(=O)NC(Nc1nc(Cl)cc(Nc2ccccc2)n1)C(Cl)(Cl)Cl (centres undefined)
IC50 at 48 h [2]: 22.5 µM
IC50 (MDA-MB-436): 13.7 µM
IC50 (HeLa): 19.6 µM
IC50 at 48 h [3]: 18.3 µM
IC50 (MDA-MB-231 [1]): 14.1 µM
IC50 at 48 h [4]: 15.1 µM
IC50 (SiHa): 24.4 µM
IC50 (MCF7): 9 µM

Structure (SMILES): Cc1ncc([N+](=O)[O-])n1CCOC(=O)NC(Nc1nc(Cl)cc(N(C)C)n1)C(Cl)(Cl)Cl (centres undefined)
IC50 (HeLa): 70.2 µM
IC50 (MDA-MB-231 [1]): 36.4 µM
IC50 (SiHa): 47.4 µM

Structure (SMILES): CCN(CC)c1cc(Cl)nc(NC(NC(=O)OCCn2c([N+](=O)[O-])cnc2C)C(Cl)(Cl)Cl)n1 (centres undefined)
IC50 (HeLa): 38.9 µM
IC50 (MDA-MB-231 [1]): 16.2 µM
IC50 (SiHa): 35.7 µM

Structure (SMILES): Cc1ncc([N+](=O)[O-])n1CCOC(=O)NC(Nc1nc(Cl)cc(Nc2ccccc2F)n1)C(Cl)(Cl)Cl (centres undefined)
IC50 (MDA-MB-231 [1]): 16 µM

Structure (SMILES): Cc1ncc([N+](=O)[O-])n1CCOC(=O)NC(Nc1nc(N)cc(F)n1)C(Cl)(Cl)Cl (centres undefined)
IC50 (HeLa): 65.4 µM
IC50 (MDA-MB-231 [1]): > 100 µM
IC50 (SiHa): > 100 µM

Structure (SMILES): Cc1ncc([N+](=O)[O-])n1CCOC(=O)NC(Nc1nc(Cl)cc(-c2ccccc2)n1)C(Cl)(Cl)Cl (centres undefined)
IC50 (HeLa): 33.2 µM
IC50 (MDA-MB-231 [1]): 18.5 µM
IC50 (SiHa): 41.4 µM

Structure (SMILES): O=C(NC(Nc1nc(Cl)cc(Nc2ccc(C(F)(F)F)cc2)n1)C(Cl)(Cl)Cl)OCCc1cccnc1 (centres undefined)
IC50 (MDA-MB-231 [1]): 13.8 µM

Structure (SMILES): Cc1cccc(Nc2cc(Cl)nc(NC(NC(=O)OCCn3c([N+](=O)[O-])cnc3C)C(Cl)(Cl)Cl)n2)c1 (centres undefined)
IC50 (MDA-MB-231 [1]): 7.79 µM

Structure (SMILES): Cc1ncc([N+](=O)[O-])n1CCOC(=O)NC(Nc1nc(N)cc(Cl)n1)C(Cl)(Cl)Cl (centres undefined)
IC50 (HeLa): 45 µM
IC50 (MDA-MB-231 [1]): > 100 µM
IC50 (SiHa): 39 µM

Structure (SMILES): Cc1ncc([N+](=O)[O-])n1CCOC(=O)NC(Nc1ncccn1)C(Cl)(Cl)Cl (centres undefined)
IC50 at 48 h [2]: 161 µM
IC50 (MDA-MB-436): 176 µM
Activity (MDA-MB-231 [7]): 38.6%
Activity (MDA-MB-231 [8]): 0.95%
Activity (MDA-MB-231 [9]): 38.8%
Activity (MDA-MB-231 [10]): 0.7%
IC50 (HeLa): 198 µM
IC50 at 48 h [3]: 151 µM
viability at 300 µM (MDA-MB-231 [11]): 59.7%
selectivity ratio [5]: 0.84
IC50 (MDA-MB-231 [1]): 192 µM
Kd [12]: 236 µM
IC50 at 48 h [4]: 252 µM
IC50 (SiHa): 203 µM
IC50 (MCF7): 292 µM
Ratio IC50 [6]: 1.53
Activity (MDA-MB-231 [13]): 53%

Structure (SMILES): Cc1cc(N)nc(NC(NC(=O)OCCn2c([N+](=O)[O-])cnc2C)C(Cl)(Cl)Cl)n1 (centres undefined)
IC50 (HeLa): > 100 µM
IC50 (MDA-MB-231 [1]): > 100 µM
IC50 (SiHa): > 100 µM

Structure (SMILES): COc1cc(N)nc(NC(NC(=O)OCCn2c([N+](=O)[O-])cnc2C)C(Cl)(Cl)Cl)n1 (centres undefined)
IC50 (HeLa): > 100 µM
IC50 (MDA-MB-231 [1]): > 100 µM
IC50 (SiHa): 89.4 µM

Structure (SMILES): Cc1ncc([N+](=O)[O-])n1CCOC(=O)NC(Nc1nc(Cl)cc(Nc2cccc(C#N)c2)n1)C(Cl)(Cl)Cl (centres undefined)
IC50 (MDA-MB-231 [1]): 16.2 µM

Structure (SMILES): O=C(NC(Nc1nc(Cl)cc(Nc2ccc(C(F)(F)F)cc2)n1)C(Cl)(Cl)Cl)OCCCc1ccccn1 (centres undefined)
IC50 (MDA-MB-231 [1]): 11.1 µM

Structure (SMILES): Cc1ncc([N+](=O)[O-])n1CCOC(=O)NC(Nc1nc(Cl)cc(Nc2ccc(F)cc2)n1)C(Cl)(Cl)Cl (centres undefined)
IC50 (MDA-MB-231 [1]): 8.13 µM

Structure (SMILES): Cc1ncc([N+](=O)[O-])n1CCOC(=O)NC(Nc1nc(Cl)cc(Nc2cccc(F)c2)n1)C(Cl)(Cl)Cl (centres undefined)
IC50 (MDA-MB-231 [1]): 8.67 µM

Second part, led by results:

IC50 (MDA-MB-231 [1]): 7.62 µM
Structure (SMILES): Cc1ccc(Nc2cc(Cl)nc(NC(NC(=O)OCCn3c([N+](=O)[O-])cnc3C)C(Cl)(Cl)Cl)n2)cc1 (centres undefined)

IC50 (MDA-MB-231 [1]): 5.23 µM
Structure (SMILES): Cc1ncc([N+](=O)[O-])n1CCOC(=O)NC(Nc1nc(Nc2ccc(C(F)(F)F)cc2)cc(C(F)(F)F)n1)C(Cl)(Cl)Cl (centres undefined)

IC50 (MDA-MB-231 [1]): 4.19 µM
Structure (SMILES): Cc1ncc([N+](=O)[O-])n1CCOC(=O)NC(Nc1ncc(Cl)c(Nc2ccc(C(F)(F)F)cc2)n1)C(Cl)(Cl)Cl (centres undefined)

IC50 (MDA-MB-231 [1]): 5.34 µM
Structure (SMILES): O=C(NC(Nc1nc(Cl)cc(Nc2ccc(C(F)(F)F)cc2)n1)C(Cl)(Cl)Cl)OCCc1ccccn1 (centres undefined)

IC50 (MDA-MB-231 [1]): 4.58 µM
Structure (SMILES): Cc1ncc([N+](=O)[O-])n1CCOC(=O)NC(Nc1ncc(Br)c(Nc2ccc(C(F)(F)F)cc2)n1)C(Cl)(Cl)Cl (centres undefined)

IC50 (MDA-MB-231 [1]): 7.22 µM
Structure (SMILES): Cn1ccnc1C(=O)NCCOC(=O)NC(Nc1nc(Cl)cc(Nc2ccc(C(F)(F)F)cc2)n1)C(Cl)(Cl)Cl (centres undefined)

IC50 (MDA-MB-231 [1]): 3.89 µM
Structure (SMILES): O=C(NC(Nc1nc(Cl)cc(Nc2ccc(C(F)(F)F)cc2)n1)C(Cl)(Cl)Cl)OCCNC(=O)c1cnc(Cl)s1 (centres undefined)

IC50 (MDA-MB-231 [1]): 6.69 µM
Structure (SMILES): O=C(NC(Nc1nc(Cl)cc(Nc2ccc(C(F)(F)F)cc2)n1)C(Cl)(Cl)Cl)OCCCc1ccccc1 (centres undefined)

IC50 (MDA-MB-231 [1]): 7.27 µM
Structure (SMILES): O=C(NC(Nc1nc(Cl)cc(Nc2ccc(C(F)(F)F)cc2)n1)C(Cl)(Cl)Cl)OCCCc1ccncc1 (centres undefined)

IC50 (MDA-MB-436): 4.6 µM
IC50 (MDA-MB-231 [1]): 3.98 µM
IC50 (MCF7): 7.42 µM
Structure (SMILES): Cc1ncc([N+](=O)[O-])n1CCOC(=O)NC(Nc1nc(Cl)cc(Nc2ccc(C(F)(F)F)cc2)n1)C(Cl)(Cl)Cl (centres undefined)
IC50 at 48 h [2]: 3.7 µM
IC50 at 48 h [3]: 10.1 µM
selectivity ratio [5]: 0.93
IC50 at 48 h [4]: 22.5 µM
Ratio IC50 [6]: 1.86

IC50 (MDA-MB-231 [1]): 7.52 µM
Structure (SMILES): O=C(NC(Nc1nc(Cl)cc(Nc2ccc(C(F)(F)F)cc2)n1)C(Cl)(Cl)Cl)OCCc1ccncc1 (centres undefined)

IC50 (MDA-MB-231 [1]): 7.27 µM
Structure (SMILES): O=C(NC(Nc1nc(Cl)cc(Nc2ccc(C(F)(F)F)cc2)n1)C(Cl)(Cl)Cl)OCCNC(=O)c1csc(Cl)n1 (centres undefined)

IC50 (MDA-MB-231 [1]): 4.36 µM
Structure (SMILES): Cc1ncc(C(=O)NCCOC(=O)NC(Nc2nc(Cl)cc(Nc3ccc(C(F)(F)F)cc3)n2)C(Cl)(Cl)Cl)s1 (centres undefined)

IC50 (MDA-MB-231 [1]): 7.21 µM
Structure (SMILES): O=C(NC(Nc1nc(Cl)cc(Nc2ccc(C(F)(F)F)cc2)n1)C(Cl)(Cl)Cl)OCCCCc1ccccc1 (centres undefined)

IC50 (MDA-MB-231 [1]): 7.63 µM
Structure (SMILES): O=C(NC(Nc1nc(Cl)cc(Nc2ccc(C(F)(F)F)cc2)n1)C(Cl)(Cl)Cl)OCc1ccccc1 (centres undefined)

IC50 (MDA-MB-231 [1]): 6.61 µM
Structure (SMILES): O=C(NC(Nc1nc(Cl)cc(Nc2ccc(C(F)(F)F)cc2)n1)C(Cl)(Cl)Cl)OCCc1ccccc1 (centres undefined)

IC50 (MDA-MB-231 [1]): 6.76 µM
Structure (SMILES): Cc1ncc([N+](=O)[O-])n1CCOC(=O)NC(Nc1nc(Cl)cc(Nc2cccc(OC(F)(F)F)c2)n1)C(Cl)(Cl)Cl (centres undefined)

IC50 (MDA-MB-231 [1]): 5.65 µM
Structure (SMILES): Cc1ncc([N+](=O)[O-])n1CCOC(=O)NC(Nc1nc(Cl)cc(Nc2ccc(OC(F)(F)F)cc2)n1)C(Cl)(Cl)Cl (centres undefined)

IC50 (MDA-MB-231 [1]): 6.01 µM
Structure (SMILES): Cc1ncc([N+](=O)[O-])n1CCOC(=O)NC(Nc1nc(Cl)cc(Nc2cccc(C(F)(F)F)c2)n1)C(Cl)(Cl)Cl (centres undefined)
